Measured values published in paper PMC8253220, “Molecular design, synthesis and in vitro biological evaluation of thienopyrimidine–hydroxamic acids as chimeric kinase HDAC inhibitors: a challenging approach to combat cancer” (Journal of Enzyme Inhibition and Medicinal Chemistry, 2021).

How the values were obtained:
full NCI 60 cell panel = assay: NCI one-dose screen, whole panel statistics; assay type: cell-based, human; conditions: 1.00E-5 Molar; for Mean Growth Percent: mean over panel
Protocol: All of the synthesised structures were selected and submitted to NCI based on computer modelling techniques and the degree of diversity of structures for the evaluation of their antiproliferative activity. The 20 synthesised compounds were selected with their respective NCI codes [NCS D-820157- NCS D-820176] for the inhibition percent assay at an initial single dose of 10 μM on the full NCI 60 cell panel, where the mean graph of the percent growth for all compounds on the full NCI cell panel is evaluated, compared to the untreated control cells (Supplementary Material). In vitro cell line inhibition % of all synthesised compounds is represented in (Table 1 of Supplementary Material).
All of the synthesised compounds (20) were submitted to NCI and selected for in vitro anticancer assay against a panel of 60 cancer cell lines. The methodology of assay and calculations is as reported.

HDAC6 = target: T1, HDAC6 (Homo sapiens, UniProt Q9UBN7); assay: In vitro HDAC6 inhibitory assay (BPS Bioscience, fluorogenic); assay type: biochemical; conditions: 10 µM
T1 construct: purchased BPS Bioscience 50006
T1 sequence (Q9UBN7 1-1215): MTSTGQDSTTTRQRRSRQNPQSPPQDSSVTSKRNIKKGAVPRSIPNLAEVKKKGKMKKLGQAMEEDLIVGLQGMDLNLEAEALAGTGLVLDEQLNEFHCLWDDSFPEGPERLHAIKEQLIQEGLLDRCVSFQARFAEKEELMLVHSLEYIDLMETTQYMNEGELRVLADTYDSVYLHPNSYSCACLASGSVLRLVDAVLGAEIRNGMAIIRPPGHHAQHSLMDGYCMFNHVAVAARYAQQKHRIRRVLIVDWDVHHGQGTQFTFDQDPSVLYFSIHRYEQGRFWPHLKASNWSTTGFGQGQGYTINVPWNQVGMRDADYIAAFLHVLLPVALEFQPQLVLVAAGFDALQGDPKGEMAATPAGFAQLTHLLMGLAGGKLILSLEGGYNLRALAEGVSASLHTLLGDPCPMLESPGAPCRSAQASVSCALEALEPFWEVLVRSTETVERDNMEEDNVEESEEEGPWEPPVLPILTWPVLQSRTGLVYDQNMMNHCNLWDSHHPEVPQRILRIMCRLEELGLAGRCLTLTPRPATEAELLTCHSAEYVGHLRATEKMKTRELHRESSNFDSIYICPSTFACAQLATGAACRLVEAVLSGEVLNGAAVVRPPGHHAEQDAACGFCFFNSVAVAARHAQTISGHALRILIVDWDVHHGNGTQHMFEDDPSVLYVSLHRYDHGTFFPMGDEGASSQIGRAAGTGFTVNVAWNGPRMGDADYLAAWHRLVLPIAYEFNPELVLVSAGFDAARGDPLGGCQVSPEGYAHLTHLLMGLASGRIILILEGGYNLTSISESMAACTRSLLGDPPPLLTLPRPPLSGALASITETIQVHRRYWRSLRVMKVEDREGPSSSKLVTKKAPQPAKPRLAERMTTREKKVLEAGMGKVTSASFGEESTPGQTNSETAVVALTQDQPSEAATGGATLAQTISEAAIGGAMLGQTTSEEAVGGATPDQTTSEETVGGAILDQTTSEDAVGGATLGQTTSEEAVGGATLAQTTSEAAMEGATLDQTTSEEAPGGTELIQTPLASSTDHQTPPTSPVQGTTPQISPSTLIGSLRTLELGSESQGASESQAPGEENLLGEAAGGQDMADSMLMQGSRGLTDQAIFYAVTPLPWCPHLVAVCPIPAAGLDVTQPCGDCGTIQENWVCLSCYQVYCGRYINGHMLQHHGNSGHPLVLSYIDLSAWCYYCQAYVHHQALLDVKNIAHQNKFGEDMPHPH
Protocol: (1 picture or pasted object on this page, not shown here)
HDAC activity assays were performed in duplicates at each concentration. The

SMILES | Delta (one dose mean graph) (full NCI 60 cell panel) [%] | Range (one dose mean graph) (full NCI 60 cell panel) [%] | Mean Growth Percent (full NCI 60 cell panel) [%] | melting point [°C] | Mean % inhibition HDAC6 (HDAC6) [%] | inhibition at 10 µM (HDAC6) [%]
COc1cccc(NC(=O)Nc2ccc(Nc3ncnc4sc(C(=O)NCCCC(=O)NO)c(C)c34)cc2)c1 [Compound 12b, 1–(4-(6-((4-(hydroxyamino)-4-oxobutyl)carbamoyl)-5-methylthieno[2,3-d]pyrimidin-4-ylamino)phenyl)-3–(3-methoxyphenyl)urea] | 18.34 | 33.01 | 100.10 | 231 to 233 | 7 | 13
Cc1c(C(=O)NCCCC(=O)NO)sc2ncnc(Nc3ccc(NC(=O)Nc4cccc(C(F)(F)F)c4)cc3)c12 [Compound 12c, 1–(4-(6-((4-(hydroxyamino)-4-oxobutyl)carbamoyl)-5-methylthieno[2,3-d]pyrimidin-4-ylamino)phenyl)-3–(3-(trifluoromethyl)phenyl)urea] | 33.40 | 59.27 | 104.16 | 215 to 217 |  | 23
Cc1c(C(=O)NO)sc2ncnc(Nc3cccc4[nH]cnc34)c12 [Compound 15a, 4-(1H-benzo[d]imidazol-4-ylamino)-N-hydroxy-5-methylthieno[2,3-d]pyrimidine-6-carboxamide] | 22.48 | 43.89 | 103.12 | 280 | 8 | 7
Cc1c(C(=O)NO)sc2ncnc(Nc3ccccc3)c12 [Compound 15b, N-hydroxy-5-methyl-4-(phenylamino)thieno[2,3-d]pyrimidine-6-carboxamide] | 24.31 | 53.05 | 97.09 | 200 |  | 30
Cc1c(C(=O)NO)sc2ncnc(Nc3ccc(Cl)cc3)c12 [Compound 15c, 4–(4-chlorophenylamino)-N-hydroxy-5-methylthieno[2,3-d]pyrimidine-6-carboxamide] | 28.53 | 83.38 | 99.73 | 349 | 7 | 9
Cc1c(C(=O)NO)sc2ncnc(Nc3ccc(F)c(Cl)c3)c12 [Compound 15d, 4–(3-chloro-4-fluorophenylamino)-N-hydroxy-5-methylthieno[2,3-d]pyrimidine-6-carboxamide] | 24.43 | 43.45 | 101.50 | 320 | 4 | 7
Cc1c(C(=O)NCCC(=O)NO)sc2ncnc(Nc3ccccc3)c12 [Compound 19b, N-(3-(hydroxyamino)-3-oxopropyl)-5-methyl-4-(phenylamino)thieno[2,3-d]pyrimidine-6-carboxamide] | 19.11 | 40.57 | 100.57 | 267 to 270 |  | 10
Cc1c(C(=O)NCCC(=O)NO)sc2ncnc(Nc3ccc(Cl)cc3)c12 [Compound 19c, 4–(4-chlorophenylamino)-N-(3-(hydroxyamino)-3-oxopropyl)-5-methylthieno[2,3-d]pyrimidine-6-carboxamide] | 24.83 | 44.72 | 104.82 | 282 | 9 | 7
Cc1c(C(=O)NCCC(=O)NO)sc2ncnc(Nc3ccc(F)c(Cl)c3)c12 [Compound 19d, 4–(3-chloro-4-fluorophenylamino)-N-(3-(hydroxyamino)-3-oxopropyl)-5-methylthieno[2,3-d]pyrimidine-6-carboxamide] | 19.56 | 44.43 | 104.37 | 276 | 0 | 
Cc1c(C(=O)NCCCC(=O)NO)sc2ncnc(Nc3ccccc3)c12 [Compound 20b, N-(4-(hydroxyamino)-4-oxobutyl)-5-methyl-4-(phenylamino)thieno[2,3-d]pyrimidine-6-carboxamide] | 14.62 | 40.59 | 102.91 | 205 |  | 56
Cc1c(C(=O)NCCCC(=O)NO)sc2ncnc(Nc3ccc(Cl)cc3)c12 [Compound 20c, 4–(4-chlorophenylamino)-N-(4-(hydroxyamino)-4-oxobutyl)-5-methylthieno[2,3-d]pyrimidine-6-carboxamide] | 23.92 | 73.06 | 103.09 | 212 | 7 | 9
Cc1c(C(=O)NCCCC(=O)NO)sc2ncnc(Nc3ccc(F)c(Cl)c3)c12 [Compound 20d, 4–(3-chloro-4-fluorophenylamino)-N-(4-(hydroxyamino)-4-oxobutyl)-5-methylthieno[2,3-d]pyrimidine-6-carboxamide] | 26.89 | 47.82 | 103.21 | 244 to 246 | 9 | 
